Reference: patent publication EP4599817A1, “IMPACT ON ENAMEL AND DENTINE […] THROUGH MEDIATED IMPACT OF ANTAGONISTS ON TRPV1 AND TRCP5 […] IN ORAL CARE PRODUCTS” (SkyLab AG, priority 2024, dated 2025)
Values joined by “and” are separate entries in the source; they are usually repeats but may differ in a detail not shown here. Identical values can stand only once.

What was measured:
TRPV1 = TRPV1 (Homo sapiens, UniProt Q8NER1); settings: clinical trial after third molar extraction; trial terminated; cited from earlier work
hypersensitive teeth = test: Randomized controlled study of dentine hypersensitivity: visual analogue scale (VAS) score with hot applicator and ice cube, before and after first mouthwash application; assay type: in vivo, patients; design: key to Before Ice / Before Hot: VAS score, 0 = no pain to 10 = severe pain (10 cm line); settings: for Hot After 1 use Mean / Ice After 1 use Mean / Before Hot Mean / Before Ice Mean / Hot After 1 use / Ice After 1 use: VAS 0-10; for Hot After 1 use Mean / Ice After 1 use Mean / Before Hot Mean / Before Ice Mean: group mean of 6 subjects; for Hot After 1 use Mean / Ice After 1 use Mean: after first application of mouthwash; for Hot After 1 use Mean / Before Hot Mean / Hot After 1 use / Before Hot / Modifications in HS after the product application, Hot After 1 use, %: applicator heated to 90C; for Ice After 1 use Mean / Before Ice Mean / Ice After 1 use / Before Ice / Modifications in HS after the product application, Ice After 1 use, %: ice cube; for Before Hot Mean / Before Ice Mean / Before Hot / Before Ice: baseline before mouthwash; for Hot After 1 use / Ice After 1 use / Before Hot / Before Ice: individual subjects 1-6; for Hot After 1 use / Ice After 1 use: after first application of mouthwash (potassium nitrate 5%, galangin 0,1%, adenosine 0,05%, oleic acid 0,1% or combination); for Before Hot / Before Ice: VAS 0 - no pain, 10 - severe pain; for Modifications in HS after the product application, Hot After 1 use, % / Modifications in HS after the product application, Ice After 1 use, %: decrease of mean VAS versus before, mouthwash, first application
From the text: Table 2. Schedule of enrollment, intervention and assessment of the study
• Age from 18 to 35 years old • Good overall health; • At least one DHS tooth with sensitivity over or equal to 4 (VAS). Withdrawal criteria • Active caries or defective restorations on the tested tooth; • Considerable loss of dentine, requiring remedial treatment or paradental surgery; • Presence of veneers; • Any professional desensitizing treatment during previous 6 months; • Use of desensitizing toothpaste during previous 3 months. • Use of anti-inflammatory medicine or painkillers during enrollment; • Currently pregnant of breast-feeding.
The subjects were randomized into 6 treatment groups, two control groups of which were negative and positive controls (Fig. 3).
For random distribution of subjects, randomization was made as a draw with the website www.randomizer.org. An average value of initial points according to DHS degree was determined for each subject, and the subjects were randomized into treatment groups providing the equivalent initial DHS points for various treatment modes. All the hypersensitive teeth in each subject were estimated with the use of DHS; an average value was considered for the baseline. All the hypersensitive teeth were subjected and re-estimated. Next, and average value was calculated for the final estimation of sensitivity.
These products were used by them till the end of the study. An oral care set included soft toothbrush and toothpaste for general oral care.
The treatment groups received mouthwashes with the following systems; Table 3. Basic formulation of mouthwash to include the system: […]
The primary result expected in the study was the decrease of dental hypersensitivity after the first application of the product. The result of the system application was calculated with a visual analogue scale, which registers sensitivity with a 10 cm line. The line extremums are the pain limits, which the subject can feel from external irritant (0 - no pain; 10 - severe pain). First, dental sensitivity was registered with an ice cube and an applicator heated to 90C. After the first application, sensitivity to external irritant was registered with an ice cube and an applicator heated to 90C.
The tested sample size was 36 subjects. The data was collected and then filtered out from errors and processed with the standard functionality of MS Excel. The charts were made with Microsoft Excel software. Table 5. Results of hypersensitivity assessment study

[1] = pure galangin; cited from earlier work
CYP1A1 = molecular target: T1, CYP1A1 (Homo sapiens, UniProt P04798); settings: with various proteins, such as CYP1A1; transformation into kaempferol; cited from earlier work
T1 sequence (P04798 1-512): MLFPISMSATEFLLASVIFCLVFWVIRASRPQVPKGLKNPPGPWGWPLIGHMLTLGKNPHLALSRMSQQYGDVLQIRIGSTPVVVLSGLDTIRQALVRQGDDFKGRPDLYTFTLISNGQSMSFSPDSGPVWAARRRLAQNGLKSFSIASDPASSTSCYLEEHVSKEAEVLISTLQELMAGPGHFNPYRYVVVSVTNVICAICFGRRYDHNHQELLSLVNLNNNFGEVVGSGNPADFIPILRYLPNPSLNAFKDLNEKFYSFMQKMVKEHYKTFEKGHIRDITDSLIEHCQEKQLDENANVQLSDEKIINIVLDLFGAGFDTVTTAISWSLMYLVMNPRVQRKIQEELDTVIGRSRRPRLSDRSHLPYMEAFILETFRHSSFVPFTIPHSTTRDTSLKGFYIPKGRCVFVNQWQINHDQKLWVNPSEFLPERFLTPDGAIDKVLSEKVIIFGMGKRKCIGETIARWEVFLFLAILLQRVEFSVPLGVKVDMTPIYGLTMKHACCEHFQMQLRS

[2] = oral administration; due to intensive metabolism; cited from earlier work
TRPC5 = settings: animal model, cited from earlier work
TRPC5 receptors = molecular target: T2, TRPC5 receptors (Homo sapiens, UniProt Q9UL62); settings: compared with galangin; cited from earlier work
T2 sequence (Q9UL62 1-973): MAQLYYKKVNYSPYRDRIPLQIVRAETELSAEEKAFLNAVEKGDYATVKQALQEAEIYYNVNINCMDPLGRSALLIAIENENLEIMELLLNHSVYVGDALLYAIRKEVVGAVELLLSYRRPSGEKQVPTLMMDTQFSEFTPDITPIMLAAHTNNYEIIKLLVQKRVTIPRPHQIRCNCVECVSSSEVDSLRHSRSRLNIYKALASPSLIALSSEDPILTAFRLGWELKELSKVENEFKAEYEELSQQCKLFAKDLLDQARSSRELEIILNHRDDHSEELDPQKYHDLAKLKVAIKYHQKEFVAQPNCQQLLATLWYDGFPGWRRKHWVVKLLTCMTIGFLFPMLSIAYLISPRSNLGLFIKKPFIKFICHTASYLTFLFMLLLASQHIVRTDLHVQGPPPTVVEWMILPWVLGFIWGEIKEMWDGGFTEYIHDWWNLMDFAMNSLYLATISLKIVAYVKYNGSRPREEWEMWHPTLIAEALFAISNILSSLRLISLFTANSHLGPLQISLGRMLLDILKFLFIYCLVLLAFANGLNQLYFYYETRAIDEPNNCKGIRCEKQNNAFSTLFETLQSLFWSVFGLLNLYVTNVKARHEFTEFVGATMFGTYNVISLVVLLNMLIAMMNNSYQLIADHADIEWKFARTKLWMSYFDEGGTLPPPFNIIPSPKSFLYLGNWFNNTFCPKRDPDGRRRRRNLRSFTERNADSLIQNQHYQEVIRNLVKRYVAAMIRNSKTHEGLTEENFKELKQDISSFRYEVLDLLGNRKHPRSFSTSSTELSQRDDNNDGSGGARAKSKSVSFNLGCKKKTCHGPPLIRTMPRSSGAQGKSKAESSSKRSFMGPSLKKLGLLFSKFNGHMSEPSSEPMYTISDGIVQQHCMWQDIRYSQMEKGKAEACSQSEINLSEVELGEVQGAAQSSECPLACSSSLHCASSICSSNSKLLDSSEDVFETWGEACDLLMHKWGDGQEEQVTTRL

TRPV1, sequence (Q8NER1 whole entry): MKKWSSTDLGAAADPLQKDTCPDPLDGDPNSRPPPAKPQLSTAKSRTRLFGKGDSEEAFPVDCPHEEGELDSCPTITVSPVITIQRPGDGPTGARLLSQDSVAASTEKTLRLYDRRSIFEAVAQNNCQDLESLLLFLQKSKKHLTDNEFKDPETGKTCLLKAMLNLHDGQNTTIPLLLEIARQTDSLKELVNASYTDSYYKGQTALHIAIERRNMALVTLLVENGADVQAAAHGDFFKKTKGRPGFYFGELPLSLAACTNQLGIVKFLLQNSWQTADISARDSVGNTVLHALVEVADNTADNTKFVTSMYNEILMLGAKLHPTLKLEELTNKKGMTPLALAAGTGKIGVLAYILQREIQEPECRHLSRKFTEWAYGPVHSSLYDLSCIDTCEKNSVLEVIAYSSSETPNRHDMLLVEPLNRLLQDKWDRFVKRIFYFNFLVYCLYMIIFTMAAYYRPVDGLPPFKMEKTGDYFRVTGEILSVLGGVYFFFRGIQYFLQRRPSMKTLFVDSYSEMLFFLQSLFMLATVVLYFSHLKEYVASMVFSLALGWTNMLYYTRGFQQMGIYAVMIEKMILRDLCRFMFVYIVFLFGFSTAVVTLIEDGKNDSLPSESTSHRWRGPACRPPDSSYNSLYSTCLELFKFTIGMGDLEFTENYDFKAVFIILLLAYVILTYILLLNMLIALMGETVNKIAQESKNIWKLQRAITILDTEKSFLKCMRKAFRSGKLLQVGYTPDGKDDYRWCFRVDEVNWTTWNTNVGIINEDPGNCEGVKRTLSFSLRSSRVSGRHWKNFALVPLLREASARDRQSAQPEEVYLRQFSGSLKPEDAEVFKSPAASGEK

## CC(=O)Nc1nc2c(Oc3cc(-c4ccc(C(F)(F)F)cc4)ncn3)cccc2s1 [AMG 517]
TRPV1
  body temperature: increased body temperature

## Nc1ncnc2c1ncn2[C@@H]1O[C@H](CO)[C@@H](O)[C@H]1O [Adenosine, adenosine]
Hypersensitive teeth
  Hot After 1 use Mean: 4
  Ice After 1 use Mean: 6,8
  Before Hot Mean: 7,3
  Before Ice Mean: 7
  Modifications in HS after the product application, Hot After 1 use, %: 45.2%
  Modifications in HS after the product application, Ice After 1 use, %: 2.8%
Hypersensitive teeth; listed as 4
  Hot After 1 use: 5 and 6 and 4 (2×) and 2 and 3
  Ice After 1 use: 8 and 9 and 6 (2×) and 5 and 7
  Before Hot: 8 and 9 (2×) and 7 and 6 and 5
  Before Ice: 8 (2×) and 7 (2×) and 6 (2×)

## O=c1c(O)c(-c2ccccc2)oc2cc(O)cc(O)c12 [Galangin, galangin]
[1]
  solubility in water: practically insoluble in water
CYP1A1
  metabolic oxidation: prone to rapid metabolic oxidation
Hypersensitive teeth
  Hot After 1 use Mean: 4,6
  Ice After 1 use Mean: 2,5
  Before Hot Mean: 5,2
  Before Ice Mean: 5,8
  Modifications in HS after the product application, Hot After 1 use, %: 11.5%
  Modifications in HS after the product application, Ice After 1 use, %: 56,9%
Hypersensitive teeth; listed as 3
  Hot After 1 use: 4 and 6 and 3 and 5 (3×)
  Ice After 1 use: 3 (2×) and 2 (2×) and 4 and 1
  Before Hot: 3 and 6 (2×) and 4 and 7 and 5
  Before Ice: 6 (3×) and 5 (2×) and 7
[2]
  bioavailability: extremely low bioavailability

## Cc1cc(N2CCCCC2)nc2ccccc12 [ML204]
TRPC5; TRPC5 blockers
  response to cold and pain: effectively eliminated any response to cold and prevented pain

## CCCCCCCC/C=C\CCCCCCCC(=O)O [Oleic acid, oleic acid]
Hypersensitive teeth
  Hot After 1 use Mean: 4,3
  Ice After 1 use Mean: 5,2
  Before Hot Mean: 6,8
  Before Ice Mean: 7,2
  Modifications in HS after the product application, Hot After 1 use, %: 36.8%
  Modifications in HS after the product application, Ice After 1 use, %: 27.8%
Hypersensitive teeth; listed as 5
  Hot After 1 use: 3 and 5 and 4 (3×) and 6
  Ice After 1 use: 8 and 4 (2×) and 6 (2×) and 3
  Before Hot: 5 and 9 and 6 (2×) and 8 and 7
  Before Ice: 9 and 8 (2×) and 5 and 7 and 6

## O=[N+]([O-])[O-].[K+] [Potassium nitrate]
Hypersensitive teeth
  Hot After 1 use Mean: 6
  Ice After 1 use Mean: 5,7
  Before Hot Mean: 6,7
  Before Ice Mean: 7,6
  Modifications in HS after the product application, Hot After 1 use, %: 10.4%
  Modifications in HS after the product application, Ice After 1 use, %: 25%
Hypersensitive teeth; listed as 1
  Hot After 1 use: 5 (2×) and 4 and 7 (2×) and 8
  Ice After 1 use: 5 (2×) and 4 and 7 (2×) and 6
  Before Hot: 5 (2×) and 6 and 8 (3×)
  Before Ice: 7 and 8 (3×) and 6 and 9

## O=c1c(O)c(-c2ccc(O)cc2)oc2cc(O)cc(O)c12 [kaempferol]
TRPC5 receptors
  impact on TRPC5 receptors: either does not affect TRPC5 receptors, or shows a significantly milder impact than that of galangin

## Nc1nc2ccc(OC(F)(F)F)cc2s1 [ruizole]
TRPC5; agonist of TRPC5 channel
  jaw sensitivity: increased jaw sensitivity
